{"source": "PubChem BioAssay (NCI)", "assay_in_all_cases": "NCI-60 cell line screen, 48 h", "key": {"[1]": {"tested_on": "K-562 leukemia"}, "[2]": {"tested_on": "SF-539 CNS"}, "[3]": {"tested_on": "MALME-3M melanoma"}, "[4]": {"tested_on": "OVCAR-8 ovarian"}, "[5]": {"tested_on": "NCI-H226 lung"}, "[6]": {"tested_on": "HL-60(TB) leukemia"}, "[7]": {"tested_on": "SW-620 colon"}, "[8]": {"tested_on": "SN12C renal"}, "[9]": {"tested_on": "SF-268 CNS"}, "[10]": {"tested_on": "UACC-62 melanoma"}, "[11]": {"tested_on": "NCI/ADR-RES ovarian"}, "[12]": {"tested_on": "DU-145 prostate"}, "[13]": {"tested_on": "MDA-MB-231 breast"}, "[14]": {"tested_on": "MOLT-4 leukemia"}, "[15]": {"tested_on": "HOP-62 NSCLC"}, "[16]": {"tested_on": "NCI-H23 lung"}, "[17]": {"tested_on": "MDA-MB-435"}, "[18]": {"tested_on": "CCRF-CEM leukemia"}, "[19]": {"tested_on": "RPMI-8226 leukemia"}, "[20]": {"tested_on": "SK-OV-3 ovarian"}, "[21]": {"tested_on": "OVCAR-4 ovarian"}, "[22]": {"tested_on": "SF-295 CNS"}, "[23]": {"tested_on": "SK-MEL-28 melanoma"}, "[24]": {"tested_on": "HCC-2998 colon"}, "[25]": {"tested_on": "SR leukemia"}, "[26]": {"tested_on": "786-0 renal"}, "[27]": {"tested_on": "UACC-257 melanoma"}, "[28]": {"tested_on": "U251 CNS"}, "[29]": {"tested_on": "PC-3 prostate"}, "[30]": {"tested_on": "MCF7 breast"}, "[31]": {"tested_on": "OVCAR-3 ovarian"}, "[32]": {"tested_on": "COLO 205 colon"}, "[33]": {"tested_on": "SK-MEL-5 melanoma"}, "[34]": {"tested_on": "A549 NSCLC"}, "[35]": {"tested_on": "ACHN renal"}, "[36]": {"tested_on": "SNB-75 CNS"}, "[37]": {"tested_on": "HOP-92 NSCLC"}, "[38]": {"tested_on": "M14 melanoma"}, "[39]": {"tested_on": "A498 renal"}, "[40]": {"tested_on": "CAKI-1 renal"}, "[41]": {"tested_on": "NCI-H460 lung"}, "[42]": {"tested_on": "OVCAR-5 ovarian"}, "[43]": {"tested_on": "NCI-H522 lung"}, "[44]": {"tested_on": "HCT-116 colon"}, "[45]": {"tested_on": "RXF 393 renal"}, "[46]": {"tested_on": "SK-MEL-2 melanoma"}, "[47]": {"tested_on": "IGROV1 ovarian"}, "[48]": {"tested_on": "SNB-19 CNS"}, "[49]": {"tested_on": "HCT-15 colon"}, "[50]": {"tested_on": "HT29 colon"}, "[51]": {"tested_on": "MDA-N"}, "[52]": {"tested_on": "EKVX NSCLC"}, "[53]": {"tested_on": "T-47D breast"}, "[54]": {"tested_on": "HS 578T breast"}, "[55]": {"tested_on": "UO-31 renal"}, "[56]": {"tested_on": "KM12 colon"}, "[57]": {"tested_on": "BT-549 breast"}, "[58]": {"tested_on": "TK-10 renal"}}, "note": "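How tested: cells in 96-well plates exposed to compound for 48 hours at five concentrations. TGI: total growth inhibition.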"}
{"smiles": "O=C(O)c1ccc(CI)cc1", "values": [{"measurement": "TGI", "setting": "[1]", "result": 74.6, "unit": "µM"}, {"measurement": "TGI", "setting": "[2]", "result": 32.1, "unit": "µM"}, {"measurement": "TGI", "setting": "[3]", "result": 23.3, "unit": "µM"}, {"measurement": "TGI", "setting": "[4]", "result": 37.3, "unit": "µM"}, {"measurement": "TGI", "setting": "[5]", "result": 44.1, "unit": "µM"}, {"measurement": "TGI", "setting": "[6]", "result": 42.4, "unit": "µM"}, {"measurement": "TGI", "setting": "[7]", "result": 33.7, "unit": "µM"}, {"measurement": "TGI", "setting": "[8]", "result": 34.7, "unit": "µM"}, {"measurement": "TGI", "setting": "[9]", "result": 39.8, "unit": "µM"}, {"measurement": "TGI", "setting": "[10]", "result": 26.4, "unit": "µM"}, {"measurement": "TGI", "setting": "[11]", "result": 34.8, "unit": "µM"}, {"measurement": "TGI", "setting": "[12]", "result": 35.9, "unit": "µM"}, {"measurement": "TGI", "setting": "[13]", "result": 37.6, "unit": "µM"}, {"measurement": "TGI", "setting": "[14]", "result": 40.7, "unit": "µM"}, {"measurement": "TGI", "setting": "[15]", "result": 36.1, "unit": "µM"}, {"measurement": "TGI", "setting": "[16]", "result": 33.1, "unit": "µM"}, {"measurement": "TGI", "setting": "[17]", "result": 54.9, "unit": "µM"}, {"measurement": "TGI", "setting": "[18]", "result": 26.9, "unit": "µM"}, {"measurement": "TGI", "setting": "[19]", "result": 45.8, "unit": "µM"}, {"measurement": "TGI", "setting": "[20]", "result": 55, "unit": "µM"}, {"measurement": "TGI", "setting": "[21]", "result": 27.4, "unit": "µM"}, {"measurement": "TGI", "setting": "[22]", "result": 21.6, "unit": "µM"}, {"measurement": "TGI", "setting": "[23]", "result": 31.9, "unit": "µM"}, {"measurement": "TGI", "setting": "[24]", "result": 35.6, "unit": "µM"}, {"measurement": "TGI", "setting": "[25]", "result": 59.1, "unit": "µM"}, {"measurement": "TGI", "setting": "[26]", "result": 10.8, "unit": "µM"}, {"measurement": "TGI", "setting": "[27]", "result": 38.9, "unit": "µM"}, {"measurement": "TGI", "setting": "[28]", "result": 20.8, "unit": "µM"}, {"measurement": "TGI", "setting": "[29]", "result": 30.3, "unit": "µM"}, {"measurement": "TGI", "setting": "[30]", "result": 31.1, "unit": "µM"}, {"measurement": "TGI", "setting": "[31]", "result": 23.3, "unit": "µM"}, {"measurement": "TGI", "setting": "[32]", "result": 32.4, "unit": "µM"}, {"measurement": "TGI", "setting": "[33]", "result": 31.3, "unit": "µM"}, {"measurement": "TGI", "setting": "[34]", "result": 33.8, "unit": "µM"}, {"measurement": "TGI", "setting": "[35]", "result": 30.1, "unit": "µM"}, {"measurement": "TGI", "setting": "[36]", "result": 49.9, "unit": "µM"}, {"measurement": "TGI", "setting": "[37]", "result": 31, "unit": "µM"}, {"measurement": "TGI", "setting": "[38]", "result": 41.3, "unit": "µM"}, {"measurement": "TGI", "setting": "[39]", "result": 35.3, "unit": "µM"}, {"measurement": "TGI", "setting": "[40]", "result": 27.6, "unit": "µM"}, {"measurement": "TGI", "setting": "[41]", "result": 31.7, "unit": "µM"}, {"measurement": "TGI", "setting": "[42]", "result": 34.5, "unit": "µM"}, {"measurement": "TGI", "setting": "[43]", "result": 11.8, "unit": "µM"}, {"measurement": "TGI", "setting": "[44]", "result": 28.1, "unit": "µM"}, {"measurement": "TGI", "setting": "[45]", "result": 37.6, "unit": "µM"}, {"measurement": "TGI", "setting": "[46]", "result": 48.7, "unit": "µM"}, {"measurement": "TGI", "setting": "[47]", "result": 38.2, "unit": "µM"}, {"measurement": "TGI", "setting": "[48]", "result": 31.9, "unit": "µM"}, {"measurement": "TGI", "setting": "[49]", "result": 39.8, "unit": "µM"}, {"measurement": "TGI", "setting": "[50]", "result": 37.9, "unit": "µM"}, {"measurement": "TGI", "setting": "[51]", "result": 34.4, "unit": "µM"}, {"measurement": "TGI", "setting": "[52]", "result": 36.4, "unit": "µM"}, {"measurement": "TGI", "setting": "[53]", "result": 48, "unit": "µM"}, {"measurement": "TGI", "setting": "[54]", "result": "> 100", "unit": "µM"}, {"measurement": "TGI", "setting": "[55]", "result": 32.7, "unit": "µM"}]}
{"smiles": "Cc1c2c3ccccc3nc-2n(C)c2ccccc12", "values": [{"measurement": "TGI", "setting": "[1]", "result": 5.28, "unit": "µM"}, {"measurement": "TGI", "setting": "[2]", "result": 10.8, "unit": "µM"}, {"measurement": "TGI", "setting": "[3]", "result": 5.98, "unit": "µM"}, {"measurement": "TGI", "setting": "[4]", "result": 15.1, "unit": "µM"}, {"measurement": "TGI", "setting": "[5]", "result": 8.52, "unit": "µM"}, {"measurement": "TGI", "setting": "[7]", "result": 12.9, "unit": "µM"}, {"measurement": "TGI", "setting": "[8]", "result": 6.97, "unit": "µM"}, {"measurement": "TGI", "setting": "[9]", "result": 19.1, "unit": "µM"}, {"measurement": "TGI", "setting": "[10]", "result": 3.67, "unit": "µM"}, {"measurement": "TGI", "setting": "[11]", "result": 6.78, "unit": "µM"}, {"measurement": "TGI", "setting": "[12]", "result": 29.6, "unit": "µM"}, {"measurement": "TGI", "setting": "[14]", "result": 2.01, "unit": "µM"}, {"measurement": "TGI", "setting": "[15]", "result": 31.9, "unit": "µM"}, {"measurement": "TGI", "setting": "[16]", "result": 13.9, "unit": "µM"}, {"measurement": "TGI", "setting": "[17]", "result": 12.4, "unit": "µM"}, {"measurement": "TGI", "setting": "[18]", "result": 5.33, "unit": "µM"}, {"measurement": "TGI", "setting": "[19]", "result": 52.7, "unit": "µM"}, {"measurement": "TGI", "setting": "[20]", "result": 7.22, "unit": "µM"}, {"measurement": "TGI", "setting": "[22]", "result": 24.6, "unit": "µM"}, {"measurement": "TGI", "setting": "[23]", "result": 12.5, "unit": "µM"}, {"measurement": "TGI", "setting": "[24]", "result": 11.4, "unit": "µM"}, {"measurement": "TGI", "setting": "[25]", "result": 25.2, "unit": "µM"}, {"measurement": "TGI", "setting": "[26]", "result": 13, "unit": "µM"}, {"measurement": "TGI", "setting": "[27]", "result": 8.05, "unit": "µM"}, {"measurement": "TGI", "setting": "[28]", "result": 12.7, "unit": "µM"}, {"measurement": "TGI", "setting": "[29]", "result": 7.5, "unit": "µM"}, {"measurement": "TGI", "setting": "[30]", "result": 5.98, "unit": "µM"}, {"measurement": "TGI", "setting": "[56]", "result": 7.91, "unit": "µM"}, {"measurement": "TGI", "setting": "[31]", "result": 5.69, "unit": "µM"}, {"measurement": "TGI", "setting": "[33]", "result": 2.2, "unit": "µM"}, {"measurement": "TGI", "setting": "[57]", "result": 19.3, "unit": "µM"}, {"measurement": "TGI", "setting": "[34]", "result": 9.19, "unit": "µM"}, {"measurement": "TGI", "setting": "[35]", "result": 6.23, "unit": "µM"}, {"measurement": "TGI", "setting": "[36]", "result": 7.75, "unit": "µM"}, {"measurement": "TGI", "setting": "[37]", "result": 13.1, "unit": "µM"}, {"measurement": "TGI", "setting": "[38]", "result": 20.5, "unit": "µM"}, {"measurement": "TGI", "setting": "[41]", "result": 2.85, "unit": "µM"}, {"measurement": "TGI", "setting": "[42]", "result": 8.27, "unit": "µM"}, {"measurement": "TGI", "setting": "[44]", "result": "> 100", "unit": "µM"}, {"measurement": "TGI", "setting": "[45]", "result": 6.01, "unit": "µM"}, {"measurement": "TGI", "setting": "[47]", "result": 12.2, "unit": "µM"}, {"measurement": "TGI", "setting": "[48]", "result": 44.5, "unit": "µM"}, {"measurement": "TGI", "setting": "[49]", "result": 11.3, "unit": "µM"}, {"measurement": "TGI", "setting": "[58]", "result": 9.09, "unit": "µM"}, {"measurement": "TGI", "setting": "[50]", "result": 11.6, "unit": "µM"}, {"measurement": "TGI", "setting": "[51]", "result": 14.5, "unit": "µM"}, {"measurement": "TGI", "setting": "[52]", "result": 10.3, "unit": "µM"}, {"measurement": "TGI", "setting": "[53]", "result": 41.3, "unit": "µM"}, {"measurement": "TGI", "setting": "[54]", "result": 20, "unit": "µM"}, {"measurement": "TGI", "setting": "[55]", "result": 6.25, "unit": "µM"}]}
